In publication PMC4286326 (Journal of the American Chemical Society, 2014):
Like-named read-outs stand apart in the source and are kept apart here.

What was measured:
[1] = test system: WT M2-expressing A/Udorn/72; test: microbe, parasite or virus in culture; assay type: cell-based; conditions: Influenza A virus, MDCK, read-out: A/Udorn/72 (S31) EC50
[2] = in vitro; conditions: dog
[3] = target: WT M2 (A/M2) (Influenza A virus, UniProt P0DOF5); test: biochemical
Sequence of WT M2 (A/M2) (P0DOF5 whole entry, looked up): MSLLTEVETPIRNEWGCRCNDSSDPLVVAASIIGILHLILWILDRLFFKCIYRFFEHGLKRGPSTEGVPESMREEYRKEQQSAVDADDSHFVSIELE

Structure (SMILES)	EC50 [1]	CC50 [2]	inhibition at 100 µM ([3]; read-out: % WT inhibition)	inhibition at 100 µM ([3]; read-out: % WT(S31) inhibition)
NC12CC3CC(CC(C3)C1)C2 [Compound 1, amantadine, reference compound]	0.3 µM	> 300 µM		
Brc1ccc(CNC23CC4CC(CC(C4)C2)C3)s1 [Compound 11, N-[(5-bromothiophen-2-yl)methyl]adamantan-1-amine]	4.6 µM	123 µM	77%	77%
